According to ChEMBL document CHEMBL1142428, “Noreupenifeldin, a tropolone from an unidentified ascomycete” (J Nat Prod, 2008):
≈ marks a conversion by molar mass, not a printed value. Calls of active or inactive are those of the source. No cut-off for these calls is given here.

Key:
[1] = test system: Haemonchus contortus; assay: Anthelmintic activity against Haemonchus contortus assessed as reduction in L3 larval motility; type: functional
[2] = target: Stromelysin-1 (Homo sapiens, UniProt P08254); assay: Inhibition of stromelysin mediated beta-casein cleavage
Chain of Stromelysin-1 (P08254 whole entry): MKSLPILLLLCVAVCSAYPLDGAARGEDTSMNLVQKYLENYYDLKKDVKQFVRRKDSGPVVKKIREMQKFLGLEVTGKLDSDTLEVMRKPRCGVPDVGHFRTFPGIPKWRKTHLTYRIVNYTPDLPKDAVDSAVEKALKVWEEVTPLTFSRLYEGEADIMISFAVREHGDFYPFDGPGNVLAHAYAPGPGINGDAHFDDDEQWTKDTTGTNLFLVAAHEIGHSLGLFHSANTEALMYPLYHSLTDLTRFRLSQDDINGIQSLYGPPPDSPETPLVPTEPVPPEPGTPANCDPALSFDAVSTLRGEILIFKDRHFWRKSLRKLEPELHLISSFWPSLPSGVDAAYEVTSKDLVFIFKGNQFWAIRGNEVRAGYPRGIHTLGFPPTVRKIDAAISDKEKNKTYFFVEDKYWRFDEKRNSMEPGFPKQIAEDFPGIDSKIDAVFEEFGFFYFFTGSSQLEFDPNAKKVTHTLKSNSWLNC

Compound | Activity [1] | EC90 [1] [µg/mL] | IC50 [2] [µM]
Cc1cc(=O)c(O)cc2c1C[C@@H]1CC(C)(C)/C=C/C[C@@]3(C)Oc4cc(O)cc(C)c4C[C@@H]3C[C@@H](O)[C@]1(C)O2 | inactive |  | 
Cc1cc(=O)c(O)cc2c1C[C@@H]1CC(C)(C)/C=C/C[C@@]3(C)Oc4cc(O)c(=O)cc(C)c4C[C@@H]3C[C@@H](O)[C@]1(C)O2 [EUPENIFELDIN] |  | 50 (≈ 91.1 µM) | 
Cc1cc(=O)c(O)cc2c1C[C@H]1CC(C)(C)/C=C/C[C@@]3(C)Oc4cc(O)c(=O)cc(C)c4C[C@@H]3C[C@H](O)[C@]1(C)O2 [PYCNIDIONE] |  | 83 (≈ 151 µM) | 31
IVERMECTIN |  | 0.18 | 
